The assay concerns the target KPC-2 (UNIPROT Q9F663) from Klebsiella pneumoniae, SEQ ID NO. 32 (Klebsiella pneumoniae, UniProt Q9F663). Particulars: E. coli cells. The procedure: An in vivo assay was conducted to test the inhibitory capacity of four β-lactamases from three resistant microorganisms: BlaMab from Mycobacterium abscessus, KPC-2 (UNIPROT Q9F663) and OXA-48 (UNIPROT Q6XEC0) from Klebsiella pneumoniae, and VIM-2 (UNIPROT B8QIQ9) from Pseudomonas aeruginosa. The assay utilized BL21(DE3) strain cells of Escherichia coli transformed with the expression vector pET26b(+) along with the gene sequence of each β-lactamase. Cells successfully transformed with the vector and insert were selected using a Kanamycin resistance gene (KanR) present in the vector. The presence and orientation of the insert were confirmed using PCR and sequencing. Additionally, the pET26b(+) vector has an IPTG-inducible promoter to activate the translation of the corresponding β-lactamase. The plasmid also includes a pelB export signal directing the β-lactamase to the periplasmic space of the bacteria for the inhibition assay with Ndis (nanobodies, single-domain antibodies).
To obtain Table 4 with the enzymatic constants (Km, Vmax, Kmi, and Ki) of BlaMab-2, KPC-2, VIM-2, and OXA-48 with B2 and B5, a quantitative assay was performed using a cephalosporin analog: nitrocefin. This compound changes color from yellow to red when hydrolyzed by β-lactamase, which can be quantified by measuring absorbance at 490nm. This method was used to study the membrane permeability of the antibodies in the bacteria as well as the inhibitory effect of B2 and B5 on the activity of BlaMab, KPC-2, OXA48, and VIM-2.

Like-named read-outs stand apart in the source and are kept apart here.

KPC-2 (UNIPROT Q9F663) from Klebsiella pneumoniae, SEQ ID NO. 32, sequence (Q9F663 25-293 limits assumed): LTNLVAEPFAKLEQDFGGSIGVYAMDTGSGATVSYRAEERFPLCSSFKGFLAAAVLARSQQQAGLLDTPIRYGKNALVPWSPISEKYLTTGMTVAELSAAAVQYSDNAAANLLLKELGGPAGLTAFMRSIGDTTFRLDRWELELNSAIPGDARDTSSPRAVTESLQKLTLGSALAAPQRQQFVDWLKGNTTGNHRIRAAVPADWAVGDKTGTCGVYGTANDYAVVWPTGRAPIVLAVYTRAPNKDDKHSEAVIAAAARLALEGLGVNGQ

Usually Km stands for the substrate concentration at which the rate is half of its maximum. In the case of `O=C(Cc1cccs1)N[C@@H]1C(=O)N2C(C(=O)O)=C(/C=C/c3ccc([N+](=O)[O-])cc3[N+](=O)[O-])CS[C@H]12` [nitrocefin], the Km is, setting by setting: (read-out: Km(µM) B2, with antibody B2) 121 µM; (read-out: Km(µM) B5, with antibody B5) 2.19 µM; (read-out: Km(µM) Control without antibody, control without antibody (controls of the B2 and B5 runs)) 1.36 µM.

The values are drawn from patent EP4729537A1, “B-LACTAMASE-INHIBITING ANTIBODY AND USE THEREOF IN THE TREATMENT AND/OR PREVENTION OF INFECTIONS CAUSED BY B-LACTAMASE-PRODUCING BACTERIA” (priority 2023, dated 2024).
